Earlier results, collected in publication PMC12181400, “Leveraging viral genome sequences and machine learning models for identification of potentially selective antiviral agents” (Communications Chemistry, 2025).
Structures can show the parent of a compound that is named as a salt. Where two headings read alike, the source gives them in different places.

Experiments:
Conditions in all cases: cited from earlier work
[1] = test system: cell viability (tox21-ar-mda-kb2-luc-agonist-p3)
[2] = test system: cell viability (tox21-car-antagonist-p1)
[3] = test system: cell viability (tox21-car-agonist-p1)
[4] = test system: cell viability (tox21-ar-mda-kb2-luc-antagonist-p2)
[5] = test system: cell viability (tox21-ap1-agonist-p1)
[6] = test system: cell viability (tox21-are-bla-p1)
[7] = curve rank −9 to 9, 0 = inactive, ref NCATS Tox21 public data browser

C[C@](N)(Cc1ccc(O)c(O)c1)C(=O)O [Methyldopa]
0: tox21-ar-mda-kb2-luc-agonist-p3-viability (curve rank) [1] | tox21-car-antagonist-p1-viability (curve rank) [2] | tox21-car-agonist-p1-viability (curve rank) [3] | tox21-ar-mda-kb2-luc-antagonist-p2-viability (curve rank) [4] | tox21-ap1-agonist-p1-viability (curve rank) [5] | tox21-are-bla-p1-viability (curve rank) [6]

CC[C@@H](CO)NC(=O)[C@@H]1C=C2c3cccc4c3c(cn4C)C[C@H]2N(C)C1 [Methysergide]
0: tox21-ar-mda-kb2-luc-agonist-p3-viability (curve rank) [1, 7] | tox21-car-antagonist-p1-viability (curve rank) [2, 7] | tox21-car-agonist-p1-viability (curve rank) [3, 7] | tox21-ar-mda-kb2-luc-antagonist-p2-viability (curve rank) [4, 7] | tox21-ap1-agonist-p1-viability (curve rank) [5, 7] | tox21-are-bla-p1-viability (curve rank) [6, 7]

Cc1cc2c(cc1S(N)(=O)=O)S(=O)(=O)CCC2 [Meticrane]
0: tox21-ar-mda-kb2-luc-agonist-p3-viability (curve rank) [1, 7] | tox21-car-antagonist-p1-viability (curve rank) [2, 7] | tox21-car-agonist-p1-viability (curve rank) [3, 7] | tox21-ar-mda-kb2-luc-antagonist-p2-viability (curve rank) [4, 7] | tox21-ap1-agonist-p1-viability (curve rank) [5, 7] | tox21-are-bla-p1-viability (curve rank) [6, 7]

COCCc1ccc(OCC(O)CNC(C)C)cc1 (stereo not drawn) [Metoprolol tartrate]
0: tox21-ar-mda-kb2-luc-agonist-p3-viability (curve rank) [1, 7] | tox21-car-antagonist-p1-viability (curve rank) [2, 7] | tox21-car-agonist-p1-viability (curve rank) [3, 7] | tox21-ar-mda-kb2-luc-antagonist-p2-viability (curve rank) [4, 7] | tox21-ap1-agonist-p1-viability (curve rank) [5, 7] | tox21-are-bla-p1-viability (curve rank) [6, 7]

CC(C)(C(=O)c1cccnc1)c1cccnc1 [Metyrapone]
0: tox21-ar-mda-kb2-luc-agonist-p3-viability (curve rank) [1] | tox21-car-antagonist-p1-viability (curve rank) [2] | tox21-car-agonist-p1-viability (curve rank) [3] | tox21-ar-mda-kb2-luc-antagonist-p2-viability (curve rank) [4] | tox21-ap1-agonist-p1-viability (curve rank) [5] | tox21-are-bla-p1-viability (curve rank) [6]

COc1ccc(OC)c(C(O)CNC(=O)CN)c1 (stereo not drawn) [Midodrine hydrochloride]
0: tox21-ar-mda-kb2-luc-agonist-p3-viability (curve rank) [1] | tox21-car-antagonist-p1-viability (curve rank) [2] | tox21-car-agonist-p1-viability (curve rank) [3] | tox21-ar-mda-kb2-luc-antagonist-p2-viability (curve rank) [4] | tox21-ap1-agonist-p1-viability (curve rank) [5] | tox21-are-bla-p1-viability (curve rank) [6]

Nc1cc(N2CCCCC2)nc(N)[n+]1[O-] [Minoxidil]
0: tox21-ar-mda-kb2-luc-agonist-p3-viability (curve rank) [1] | tox21-car-antagonist-p1-viability (curve rank) [2] | tox21-car-agonist-p1-viability (curve rank) [3] | tox21-ar-mda-kb2-luc-antagonist-p2-viability (curve rank) [4] | tox21-ap1-agonist-p1-viability (curve rank) [5] | tox21-are-bla-p1-viability (curve rank) [6]

NC(=O)C[S+]([O-])C(c1ccccc1)c1ccccc1 (stereo not drawn) [Modafinil]
0: tox21-ar-mda-kb2-luc-agonist-p3-viability (curve rank) [1, 7] | tox21-car-antagonist-p1-viability (curve rank) [2, 7] | tox21-car-agonist-p1-viability (curve rank) [3, 7] | tox21-ar-mda-kb2-luc-antagonist-p2-viability (curve rank) [4, 7] | tox21-ap1-agonist-p1-viability (curve rank) [5, 7] | tox21-are-bla-p1-viability (curve rank) [6, 7]

CCOC(=O)[N-]c1cn(N2CCOCC2)n[o+]1 [Molsidomine]
0: tox21-ar-mda-kb2-luc-agonist-p3-viability (curve rank) [1] | tox21-car-antagonist-p1-viability (curve rank) [2] | tox21-car-agonist-p1-viability (curve rank) [3] | tox21-ar-mda-kb2-luc-antagonist-p2-viability (curve rank) [4] | tox21-ap1-agonist-p1-viability (curve rank) [5] | tox21-are-bla-p1-viability (curve rank) [6]

c1ccc2c(CC3=NCCN3)cccc2c1 [Naphazoline hydrochloride]
0: tox21-ar-mda-kb2-luc-agonist-p3-viability (curve rank) [1] | tox21-car-antagonist-p1-viability (curve rank) [2] | tox21-car-agonist-p1-viability (curve rank) [3] | tox21-ar-mda-kb2-luc-antagonist-p2-viability (curve rank) [4] | tox21-ap1-agonist-p1-viability (curve rank) [5] | tox21-are-bla-p1-viability (curve rank) [6]

O=C(CCNNC(=O)c1ccncc1)NCc1ccccc1 [Nialamide]
0: tox21-ar-mda-kb2-luc-agonist-p3-viability (curve rank) [1] | tox21-car-antagonist-p1-viability (curve rank) [2] | tox21-car-agonist-p1-viability (curve rank) [3] | tox21-ar-mda-kb2-luc-antagonist-p2-viability (curve rank) [4] | tox21-ap1-agonist-p1-viability (curve rank) [5] | tox21-are-bla-p1-viability (curve rank) [6]

O=C(NCCO[N+](=O)[O-])c1cccnc1 [Nicorandil]
0: tox21-ar-mda-kb2-luc-agonist-p3-viability (curve rank) [1] | tox21-car-antagonist-p1-viability (curve rank) [2] | tox21-car-agonist-p1-viability (curve rank) [3] | tox21-ar-mda-kb2-luc-antagonist-p2-viability (curve rank) [4] | tox21-ap1-agonist-p1-viability (curve rank) [5] | tox21-are-bla-p1-viability (curve rank) [6]

CN1Cc2c(N)cccc2C(c2ccccc2)C1 (stereo not drawn) [Nomifensine maleate]
0: tox21-ar-mda-kb2-luc-agonist-p3-viability (curve rank) [1] | tox21-car-antagonist-p1-viability (curve rank) [2] | tox21-car-agonist-p1-viability (curve rank) [3] | tox21-ar-mda-kb2-luc-antagonist-p2-viability (curve rank) [4] | tox21-ap1-agonist-p1-viability (curve rank) [5] | tox21-are-bla-p1-viability (curve rank) [6]

Cc1ncc([N+](=O)[O-])n1CC(O)CCl (stereo not drawn) [Ornidazole]
0: tox21-ar-mda-kb2-luc-agonist-p3-viability (curve rank) [1] | tox21-car-antagonist-p1-viability (curve rank) [2] | tox21-car-agonist-p1-viability (curve rank) [3] | tox21-ar-mda-kb2-luc-antagonist-p2-viability (curve rank) [4] | tox21-ap1-agonist-p1-viability (curve rank) [5] | tox21-are-bla-p1-viability (curve rank) [6]

CC(=O)CCCCn1c(=O)c2c(ncn2C)n(C)c1=O [Pentoxifylline]
0: tox21-ar-mda-kb2-luc-agonist-p3-viability (curve rank) [1] | tox21-car-antagonist-p1-viability (curve rank) [2] | tox21-car-agonist-p1-viability (curve rank) [3] | tox21-ar-mda-kb2-luc-antagonist-p2-viability (curve rank) [4] | tox21-ap1-agonist-p1-viability (curve rank) [5] | tox21-are-bla-p1-viability (curve rank) [6]

NC(=O)NC(=O)Cc1ccccc1 [Phenacemide]
0: tox21-ar-mda-kb2-luc-agonist-p3-viability (curve rank) [1, 7] | tox21-car-antagonist-p1-viability (curve rank) [2, 7] | tox21-car-agonist-p1-viability (curve rank) [3, 7] | tox21-ar-mda-kb2-luc-antagonist-p2-viability (curve rank) [4, 7] | tox21-ap1-agonist-p1-viability (curve rank) [5, 7] | tox21-are-bla-p1-viability (curve rank) [6, 7]

CCOc1ccc(NC(C)=O)cc1 [Phenacetin]
0: tox21-ar-mda-kb2-luc-agonist-p3-viability (curve rank) [1] | tox21-car-antagonist-p1-viability (curve rank) [2] | tox21-car-agonist-p1-viability (curve rank) [3] | tox21-ar-mda-kb2-luc-antagonist-p2-viability (curve rank) [4] | tox21-ap1-agonist-p1-viability (curve rank) [5] | tox21-are-bla-p1-viability (curve rank) [6]

O=C(O)COc1ccccc1 [Phenoxyacetic acid]
0: tox21-ar-mda-kb2-luc-agonist-p3-viability (curve rank) [1, 7] | tox21-car-antagonist-p1-viability (curve rank) [2, 7] | tox21-car-agonist-p1-viability (curve rank) [3, 7] | tox21-ar-mda-kb2-luc-antagonist-p2-viability (curve rank) [4, 7] | tox21-ap1-agonist-p1-viability (curve rank) [5, 7] | tox21-are-bla-p1-viability (curve rank) [6, 7]

CN1C(=O)CC(c2ccccc2)C1=O (stereo not drawn) [Phensuximide]
0: tox21-ar-mda-kb2-luc-agonist-p3-viability (curve rank) [1] | tox21-car-antagonist-p1-viability (curve rank) [2] | tox21-car-agonist-p1-viability (curve rank) [3] | tox21-ar-mda-kb2-luc-antagonist-p2-viability (curve rank) [4] | tox21-ap1-agonist-p1-viability (curve rank) [5] | tox21-are-bla-p1-viability (curve rank) [6]

Nc1ccc(C(=O)Oc2ccccc2)c(O)c1 [Phenyl 4-aminosalicylate]
0: tox21-ar-mda-kb2-luc-agonist-p3-viability (curve rank) [1, 7] | tox21-car-antagonist-p1-viability (curve rank) [2, 7] | tox21-car-agonist-p1-viability (curve rank) [3, 7] | tox21-ar-mda-kb2-luc-antagonist-p2-viability (curve rank) [4, 7] | tox21-ap1-agonist-p1-viability (curve rank) [5, 7] | tox21-are-bla-p1-viability (curve rank) [6, 7]

CC(N/C(=N\C#N)Nc1ccncc1)C(C)(C)C (stereo not drawn) [Pinacidil monohydrate]
0: tox21-ar-mda-kb2-luc-agonist-p3-viability (curve rank) [1] | tox21-car-antagonist-p1-viability (curve rank) [2] | tox21-car-agonist-p1-viability (curve rank) [3] | tox21-ar-mda-kb2-luc-antagonist-p2-viability (curve rank) [4] | tox21-ap1-agonist-p1-viability (curve rank) [5] | tox21-are-bla-p1-viability (curve rank) [6]

CCn1cc(C(=O)O)c(=O)c2cnc(N3CCNCC3)nc21 [Pipemidic acid]
0: tox21-ar-mda-kb2-luc-agonist-p3-viability (curve rank) [1] | tox21-car-antagonist-p1-viability (curve rank) [2] | tox21-car-agonist-p1-viability (curve rank) [3] | tox21-ar-mda-kb2-luc-antagonist-p2-viability (curve rank) [4] | tox21-ap1-agonist-p1-viability (curve rank) [5] | tox21-are-bla-p1-viability (curve rank) [6]

CC[N+]1(C)CCCC(OC(=O)C(O)(c2ccccc2)c2ccccc2)C1 (stereo not drawn) [Pipenzolate bromide]
0: tox21-ar-mda-kb2-luc-agonist-p3-viability (curve rank) [1] | tox21-car-antagonist-p1-viability (curve rank) [2] | tox21-car-agonist-p1-viability (curve rank) [3] | tox21-ar-mda-kb2-luc-antagonist-p2-viability (curve rank) [4] | tox21-ap1-agonist-p1-viability (curve rank) [5] | tox21-are-bla-p1-viability (curve rank) [6]

O=C(CCBr)N1CCN(C(=O)CCBr)CC1 [Pipobroman]
0: tox21-ar-mda-kb2-luc-agonist-p3-viability (curve rank) [1] | tox21-car-antagonist-p1-viability (curve rank) [2] | tox21-car-agonist-p1-viability (curve rank) [3] | tox21-ar-mda-kb2-luc-antagonist-p2-viability (curve rank) [4] | tox21-ap1-agonist-p1-viability (curve rank) [5] | tox21-are-bla-p1-viability (curve rank) [6]

CN1C(C(=O)Nc2ccccn2)=C(O)c2ccccc2S1(=O)=O [Piroxicam]
0: tox21-ar-mda-kb2-luc-agonist-p3-viability (curve rank) [1] | tox21-car-antagonist-p1-viability (curve rank) [2] | tox21-car-agonist-p1-viability (curve rank) [3] | tox21-ar-mda-kb2-luc-antagonist-p2-viability (curve rank) [4] | tox21-ap1-agonist-p1-viability (curve rank) [5] | tox21-are-bla-p1-viability (curve rank) [6]

CC(C)(C)C(=O)OCOC(=O)[C@@H]1N2C(=O)[C@@H](NC(=O)[C@H](N)c3ccccc3)[C@H]2SC1(C)C [Pivampicillin]
0: tox21-ar-mda-kb2-luc-agonist-p3-viability (curve rank) [1] | tox21-car-antagonist-p1-viability (curve rank) [2] | tox21-car-agonist-p1-viability (curve rank) [3] | tox21-ar-mda-kb2-luc-antagonist-p2-viability (curve rank) [4] | tox21-ap1-agonist-p1-viability (curve rank) [5] | tox21-are-bla-p1-viability (curve rank) [6]

CCC1(c2ccccc2)C(=O)NCNC1=O [Primidone]
0: tox21-ar-mda-kb2-luc-agonist-p3-viability (curve rank) [1] | tox21-car-antagonist-p1-viability (curve rank) [2] | tox21-car-agonist-p1-viability (curve rank) [3] | tox21-ar-mda-kb2-luc-antagonist-p2-viability (curve rank) [4] | tox21-ap1-agonist-p1-viability (curve rank) [5] | tox21-are-bla-p1-viability (curve rank) [6]

CC(C)(Sc1cc(C(C)(C)C)c(O)c(C(C)(C)C)c1)Sc1cc(C(C)(C)C)c(O)c(C(C)(C)C)c1 [Probucol]
0: tox21-ar-mda-kb2-luc-agonist-p3-viability (curve rank) [1] | tox21-car-antagonist-p1-viability (curve rank) [2] | tox21-car-agonist-p1-viability (curve rank) [3] | tox21-ar-mda-kb2-luc-antagonist-p2-viability (curve rank) [4] | tox21-ap1-agonist-p1-viability (curve rank) [5] | tox21-are-bla-p1-viability (curve rank) [6]

CC(O)Cn1cnc2c1c(=O)n(C)c(=O)n2C (stereo not drawn) [Proxyphylline]
0: tox21-ar-mda-kb2-luc-agonist-p3-viability (curve rank) [1] | tox21-car-antagonist-p1-viability (curve rank) [2] | tox21-car-agonist-p1-viability (curve rank) [3] | tox21-ar-mda-kb2-luc-antagonist-p2-viability (curve rank) [4] | tox21-ap1-agonist-p1-viability (curve rank) [5] | tox21-are-bla-p1-viability (curve rank) [6]
